We go through 22 compounds from patent publication US8163909B2, “Substituted hydroxyethyl amine compounds as beta-secretase modulators and methods of use” (Amgen Inc., priority 2007, dated 2012).

What is called pIC50 is the IC50 on a negative log10 scale, so that one unit is a factor of ten.

The target in data set [1] is Beta Secretase enzyme (BACE) (Homo sapiens, UniProt P56817). Nature of the data set: In vitro enzymatic BACE FRET (fluorescence resonance energy transfer) assay.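 Also: fluorescence read after 1 h with 50 nM quenched peptide substrate spanning the BACE cleavage site, in pH 4.2 acetate buffer containing 10% DMSO and nonionic detergent.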 It is filed as biochemical. The conditions noted are these: read-out: BACE1 FRET assay (IC50).
In data set [2] the test system is Aβ40 in conditioned medium of cells stably expressing Amyloid Precursor Protein (APP). As to the kind of experiment: In vitro BACE cell-based assay (Aβ40 in conditioned medium, sandwich ELISA).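 Also: compounds added as a dilution series, secreted peptide quantified by europium time-resolved fluorescence readout, potency fitted from percent of control versus compound concentration.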 The conditions noted are these: Homo sapiens, HEK293, HEK cells; read-out: HEK cell assay (IC50).
The target in another data set is CYP3A4 (CYP3A) (Homo sapiens, UniProt P08684). As to the kind of experiment: in vitro. The conditions noted are these: microsomes, pH 7.4.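 Also: inhibition of CYP3A-mediated 1-hydroxymidazolam formation after 10 min incubation with NADPH, quantified by HPLC MS relative to metabolite produced without test compound.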
The nature of data set [3]: Microsomal stability assay, rat liver microsomes.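 Also: rat liver microsomes (0.25 mg/mL) with about 1 µM compound plus 1 mM NADPH, pH 7.4, 37 °C for 30 min, parent left measured by LC-MS/MS against 0 min.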 The conditions noted are these: rat liver microsomes. On the technique in general: Liver microsomes are a subcellular fraction often used to study metabolism.
Data set [4] can be described thus: Microsomal stability assay, human liver microsomes.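 Also: pooled human liver microsomes at 0.25 mg/mL with 1 µM compound and NADPH at 37 °C, pH 7.4, for 30 min, unchanged parent quantified by LC-MS/MS against the 0 min sample.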 The conditions noted are these: human liver microsomes.
For a further data set, the target named is CYP2D6 (Homo sapiens, UniProt P10635). As to the kind of experiment: CYP2D6 inhibition assay (bufuralol, pooled human liver microsomes). The conditions noted are these: 2D6 IC50, CYP2D6 inhibition.

pIC50: −log10 of the molar value.

CYP3A4 (CYP3A), sequence (P08684 2-503): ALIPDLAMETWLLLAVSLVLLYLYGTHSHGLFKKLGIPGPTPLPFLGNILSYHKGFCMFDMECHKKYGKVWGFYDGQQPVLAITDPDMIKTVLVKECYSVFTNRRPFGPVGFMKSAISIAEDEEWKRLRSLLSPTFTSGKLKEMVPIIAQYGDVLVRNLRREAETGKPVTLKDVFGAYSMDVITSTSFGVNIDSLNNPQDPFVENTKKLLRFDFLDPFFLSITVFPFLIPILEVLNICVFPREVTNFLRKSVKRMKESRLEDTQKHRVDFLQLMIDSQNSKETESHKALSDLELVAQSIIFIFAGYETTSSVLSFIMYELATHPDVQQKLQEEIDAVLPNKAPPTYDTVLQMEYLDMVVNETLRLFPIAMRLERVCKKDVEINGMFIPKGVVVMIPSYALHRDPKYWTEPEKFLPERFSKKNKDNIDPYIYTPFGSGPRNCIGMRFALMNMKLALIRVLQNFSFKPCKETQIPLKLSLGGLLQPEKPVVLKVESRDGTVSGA
CYP2D6, sequence (P10635 whole entry): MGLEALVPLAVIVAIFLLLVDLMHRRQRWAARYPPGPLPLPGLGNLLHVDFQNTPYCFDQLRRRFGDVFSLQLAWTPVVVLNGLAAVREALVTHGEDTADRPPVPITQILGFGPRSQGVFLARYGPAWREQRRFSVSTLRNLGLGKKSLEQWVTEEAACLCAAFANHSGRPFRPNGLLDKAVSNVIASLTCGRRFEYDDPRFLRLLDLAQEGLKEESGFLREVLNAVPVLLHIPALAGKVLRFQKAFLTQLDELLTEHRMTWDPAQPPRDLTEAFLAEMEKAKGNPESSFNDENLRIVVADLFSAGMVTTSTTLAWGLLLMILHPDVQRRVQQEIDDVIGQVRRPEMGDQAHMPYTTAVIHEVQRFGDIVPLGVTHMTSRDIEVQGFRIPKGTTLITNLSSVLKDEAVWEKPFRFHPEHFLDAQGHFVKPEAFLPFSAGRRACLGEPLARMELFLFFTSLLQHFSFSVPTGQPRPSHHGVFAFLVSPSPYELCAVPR
Beta Secretase enzyme (BACE), sequence (P56817 46-501): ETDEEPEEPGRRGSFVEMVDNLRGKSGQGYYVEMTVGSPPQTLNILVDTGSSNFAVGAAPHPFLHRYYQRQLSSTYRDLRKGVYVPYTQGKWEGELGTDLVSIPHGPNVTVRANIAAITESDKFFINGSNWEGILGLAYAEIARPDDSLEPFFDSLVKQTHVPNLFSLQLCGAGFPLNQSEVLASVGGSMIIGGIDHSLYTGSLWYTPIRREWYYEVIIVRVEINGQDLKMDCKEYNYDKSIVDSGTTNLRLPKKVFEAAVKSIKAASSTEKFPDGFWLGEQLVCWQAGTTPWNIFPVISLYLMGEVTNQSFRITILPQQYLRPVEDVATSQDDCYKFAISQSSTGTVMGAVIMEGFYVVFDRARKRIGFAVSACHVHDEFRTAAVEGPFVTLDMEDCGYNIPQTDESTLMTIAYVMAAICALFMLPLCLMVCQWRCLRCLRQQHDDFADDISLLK

With `CC(=O)N[C@@H](Cc1ccc(F)c(-c2ccncc2)c1)[C@H](O)CN[C@H]1CC2(CCC2)Oc2ccc(CC(C)(C)C)cc21` [compound 625], the negative logarithm of the IC50 (pIC50) in data set [1] is 7.38; in data set [2], 7.24; against CYP3A4 (CYP3A), 6.80; on CYP2D6, 6.70. The RLM in data set [3] came out at 330 µL/min/mg. The compound also yielded an HLM in data set [4] of 389 µL/min/mg.

Take `CO[C@H](C)C(=O)N[C@@H](Cc1ccc2c(c1)OCO2)[C@H](O)CN[C@H]1CC2(CCC2)C(=O)c2ncc(CC(C)(C)C)cc21` [compound 626]: the pIC50 in data set [1] was 6.88; in data set [2], 6.97; against CYP3A4 (CYP3A) it was 6.30; at CYP2D6, 4.84. The RLM in data set [3] amounted to 260 µL/min/mg. Further, the HLM in data set [4] turned out to be 153 µL/min/mg.

As for `CC(=O)N[C@@H](Cc1cc(F)cc(F)c1)[C@H](O)CN[C@H]1CC2(CCC2)Oc2ncc(C(F)(F)C(C)(C)C)cc21` [compound 627], the pIC50 was 8.15 in data set [1], 7.33 in data set [2], 5.68 against CYP3A4 (CYP3A) and 4.58 against CYP2D6. In data set [3], the RLM was determined as 166 µL/min/mg. The HLM in data set [4] was 829 µL/min/mg.

For `COCC(=O)N[C@@H](Cc1cc(F)cc(F)c1)[C@H](O)CN[C@H]1CC2(CCC2)Oc2c1cc(CC(C)(C)C)nc2-c1ccc2c(c1)OCO2` [compound 629], the pIC50 is 8.05 in data set [1], 6.92 in data set [2], 5.92 against CYP3A4 (CYP3A) and at most 4.57 on CYP2D6. The same compound had an RLM in data set [3] of 209 µL/min/mg. The same compound registered an HLM in data set [4] of 171 µL/min/mg.

In the case of `COCC(=O)N[C@@H](Cc1cc(F)cc(F)c1)[C@H](O)CN[C@H]1CC2(CCC2)Oc2c(-c3cncn3C)cc(CC(C)C)cc21` [compound 631], the pIC50 is 7.72 in data set [1], 8.40 in data set [2], 7.00 on CYP3A4 (CYP3A) and 5.41 at CYP2D6. The compound also gave an RLM in data set [3] of 209 µL/min/mg. Moreover, the HLM in data set [4] came to 36 µL/min/mg.

Regarding `COCC(=O)N[C@@H](Cc1cncs1)[C@H](O)CN[C@H]1CC2(CCC2)Oc2c(-c3ccncc3)cc(CC(C)(C)C)cc21` [compound 633], the negative-log IC50 (pIC50) in data set [1] was 7.68; in data set [2], 7.96; at CYP3A4 (CYP3A) it was 7.00; at CYP2D6, 5.52. In data set [3], this compound had an RLM of 153 µL/min/mg. The compound also had an HLM in data set [4] of 53 µL/min/mg.

As for `CO[C@H](C)C(=O)N[C@@H](Cc1ccccc1)[C@H](O)CN[C@H]1CC2(CCC2)Oc2c(-c3cncn3C)cc(CC(C)C)cc21` [compound 634], the pIC50 in data set [1] is 6.90; in data set [2], 7.85; against CYP3A4 (CYP3A), 7.00; at CYP2D6, 5.35. Besides, in data set [3], the RLM was 340 µL/min/mg. The HLM in data set [4] was found to be 50 µL/min/mg.

On to `CC(=O)N[C@@H](Cc1cccc(C#N)c1)[C@H](O)CN[C@H]1CC2(CCC2)Oc2c(-c3ccncc3)cc(CC(C)(C)C)cc21` [compound 637], for which the pIC50 in data set [1] is 8.00; in data set [2], 8.40; against CYP3A4 (CYP3A) it was 7.00; against CYP2D6, 5.55. In addition, the RLM in data set [3] was 105 µL/min/mg. This compound showed an HLM in data set [4] of 34 µL/min/mg.

Regarding `COCC(=O)N[C@@H](Cc1cccc(F)c1)[C@H](O)CN[C@H]1CC2(CCC2)Oc2c(-c3ccnc(Cl)c3)cc(CC(C)(C)C)cc21` [compound 639, N-((1S,2R)-3-(((4S)-8-(2-chloro-4-pyridinyl)-6-(2,2-dimethylpropyl)-3,4-dihydrospiro[chromene-2,1′-cyclobutan]-4-yl)amino)-1-(3-fluorobenzyl)-2-hydroxypropyl)-2-methoxyacetamide], the pIC50 in data set [1] was 8.30; in data set [2], 7.60; on CYP3A4 (CYP3A), 5.92; on CYP2D6, 5.74. The same compound gave an RLM in data set [3] of 399 µL/min/mg. Moreover, the HLM in data set [4] was 706 µL/min/mg.

With `CC(=O)N[C@@H](Cc1cc2c(c(-c3ccncc3)c1)OCO2)[C@H](O)CN[C@H]1CC2(CCC2)Oc2ncc(CC(C)(C)C)cc21` [compound 645], the pIC50 in data set [1] is 6.36; in data set [2], 6.39; at CYP3A4 (CYP3A), 7.00; against CYP2D6 it was 6.52. In data set [3], this compound gave an RLM of 62 µL/min/mg. Also, in data set [4], the HLM amounted to 451 µL/min/mg.

`CC(=O)N[C@@H](Cc1cc(F)cc(-c2ccco2)c1)[C@H](O)CN[C@H]1CC2(CCC2)Oc2ccc(CC(C)(C)C)cc21` [compound 646]: the pIC50 is 8.40 in data set [1], 6.98 in data set [2], 5.70 against CYP3A4 (CYP3A) and 5.80 against CYP2D6. The compound also showed an RLM in data set [3] of 344 µL/min/mg. Besides, in data set [4], the HLM was 326 µL/min/mg.

Turning to `CC(C)(C)Cc1cnc2c(c1)[C@@H](NC[C@@H](O)[C@H](Cc1ccc(F)cc1)NC(=O)COC(F)F)CC1(CCC1)O2` [compound 647], the pIC50 was 8.10 in data set [1], 7.41 in data set [2], 6.40 on CYP3A4 (CYP3A) and 5.57 at CYP2D6. The RLM in data set [3] is 269 µL/min/mg. This compound had an HLM in data set [4] of 303 µL/min/mg.

Take `CC(=O)N[C@@H](Cc1ccc(F)c(-c2cccnc2)c1)[C@H](O)CN[C@H]1CC2(CCC2)Oc2ccc(CC(C)(C)C)cc21` [compound 648]: the pIC50 in data set [1] is 8.10; in data set [2], 7.35; at CYP3A4 (CYP3A) it was 7.00; against CYP2D6, 6.40. Also, the RLM in data set [3] was 560 µL/min/mg. Further, in data set [4], the HLM amounted to 551 µL/min/mg.

As to `CC(=O)N[C@@H](Cc1cc(F)cc(-c2cccnc2)c1)[C@H](O)CN[C@H]1CC2(CCC2)Oc2ccc(CC(C)(C)C)cc21` [compound 649], the pIC50 was 8.15 in data set [1], 7.52 in data set [2], 6.52 on CYP3A4 (CYP3A) and 6.30 on CYP2D6. Moreover, the RLM in data set [3] was found to be 482 µL/min/mg. Besides, the HLM in data set [4] came to 706 µL/min/mg.

Turning to `CO[C@H](C)C(=O)N[C@@H](Cc1ccc(O)c(O)c1)[C@H](O)CN[C@H]1CC2(CCC2)Oc2ncc(CC(C)(C)C)cc21` [compound 651], the negative logarithm of the IC50 (pIC50) in data set [1] was 8.10; in data set [2] it was 7.92; against CYP3A4 (CYP3A), 5.80; against CYP2D6, 4.97. In data set [3], this compound registered an RLM of 147 µL/min/mg. In data set [4], this compound registered an HLM of 171 µL/min/mg.

In the case of `CO[C@H](C)C(=O)N[C@@H](Cc1ccncc1)[C@H](O)CN[C@H]1CC2(CCC2)Oc2ncc(C(F)(F)F)cc21` [compound 653], the pIC50 was 5.17 in data set [1], below 5.00 in data set [2], 6.22 against CYP3A4 (CYP3A) and 5.24 against CYP2D6. The compound further came in with an RLM in data set [3] of 114 µL/min/mg. Besides, the HLM in data set [4] was 178 µL/min/mg.

Regarding `COCC(=O)N[C@@H](Cc1cccc(F)c1)[C@H](O)CN[C@H]1CC2(CCC2)Oc2c(-c3ccnc(OC)c3)cc(CC(C)(C)C)cc21` [compound 654], the negative logarithm of the IC50 (pIC50) was 8.22 in data set [1], 7.47 in data set [2], 6.00 against CYP3A4 (CYP3A) and 5.00 against CYP2D6. Further, the RLM in data set [3] turned out to be 477 µL/min/mg. The compound further yielded an HLM in data set [4] of 399 µL/min/mg.

Take `COCC(=O)N[C@@H](Cc1ccc2c(c1)OCO2)[C@H](O)CN[C@H]1CC2(CCC2)Oc2c1cc(CC(C)C)nc2Cl` [compound 656]: the negative logarithm of the IC50 (pIC50) in data set [1] was 7.29; in data set [2] it was 6.11; at CYP3A4 (CYP3A), 7.00; against CYP2D6, 5.28. For the same compound, the RLM in data set [3] amounted to 180 µL/min/mg. Moreover, in data set [4], the HLM came out at 131 µL/min/mg.

`CO[C@H](C)C(=O)N[C@@H](Cc1ccc2c(c1)OCO2)[C@H](O)CN[C@H]1CC2(CCC2)Oc2c1cc(CC(C)C)nc2Cl` [compound 657, (2R)-N-((1S,2R)-1-(1,3-benzodioxol-5-ylmethyl)-3-(((4′S)-8′-chloro-6′-(2-methylpropyl)-3′,4′-dihydrospiro[cyclobutane-1,2′-pyrano[2,3-c]pyridin]-4′-yl)amino)-2-hydroxypropyl)-2-methoxypropanamide]: the pIC50 in data set [1] is 7.52; in data set [2], 6.28; against CYP3A4 (CYP3A), 6.80; on CYP2D6, 5.28. In data set [3], this compound returned an RLM of 178 µL/min/mg. The compound also had an HLM in data set [4] of 96 µL/min/mg.

Consider `CC(=O)N[C@@H](Cc1cccc(-c2cncs2)c1)[C@H](O)CN[C@H]1CC2(CCC2)Oc2ncc(CC(C)(C)C)cc21` [compound 658, N-((1S,2R)-3-(((4′S)-6′-(2,2-dimethylpropyl)-3′,4′-dihydrospiro[cyclobutane-1,2′-pyrano[2,3-b]pyridin]-4′-yl)amino)-2-hydroxy-1-(3-(1,3-thiazol-5-yl)benzyl)propyl)acetamide], for which the pIC50 in data set [1] was 8.22; in data set [2], 8.00; against CYP3A4 (CYP3A), 7.00; on CYP2D6 it was 6.52. In data set [3], this compound showed an RLM of 120 µL/min/mg. For the same compound, the HLM in data set [4] was 130 µL/min/mg.

Consider `CCOCC(=O)N[C@@H](Cc1cccc(F)c1)[C@H](O)CN[C@H]1CC2(CCC2)Oc2ncc(CC(C)(C)C)cc21` [compound 660], for which the pIC50 was 8.52 in data set [1], 7.74 in data set [2], 6.70 at CYP3A4 (CYP3A) and 5.72 on CYP2D6. In data set [3], this compound showed an RLM of 775 µL/min/mg. For the same compound, the HLM in data set [4] was 829 µL/min/mg.

On to `COCC(=O)N[C@@H](Cc1ccc(F)cc1)[C@H](O)CN[C@H]1CC(C)(C)Oc2ncc(CC(C)(C)C)cc21` [compound 663], for which the pIC50 in data set [1] is 7.89; in data set [2], 7.68; against CYP3A4 (CYP3A), 5.77; at CYP2D6, 4.98. In addition, in data set [3], the RLM came out at 133 µL/min/mg. The HLM in data set [4] was found to be 163 µL/min/mg.
